Broadly, the IC50 is the concentration at which inhibition is half-maximal.

Assay [1] concerns the target T1, LK35.2-hPD-L1 cells / PE-labeled PD-1-Ig (Homo sapiens, UniProt Q9NZQ7).
T1 construct: expressed in transfected cells; host or cells: LK35.2 mouse B cell line
The assay can be described thus: LK35.2-hPD-L1 cell binding high-content screening assay. Format: cell-based. The settings on record: cluster symbol, read-out: CBA IC50 cluster. In outline: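 Mouse LK35.2 B cells stably over-expressing human PD-L1, cultured overnight, treated with compound plus PE-labeled human PD-1-Ig (1 nM final) in RPMI/10% FCS for 1 h at 37 °C. After washing, bound fluorescence quantified by high-content imaging.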

The target in a further assay is T2, Human PD-L1/PD-1 (Homo sapiens, UniProt Q9NZQ7).
T2 construct: made in house; host or cells: HEK293T
T2 sequence (Q9NZQ7 with tags, fused parts or gaps): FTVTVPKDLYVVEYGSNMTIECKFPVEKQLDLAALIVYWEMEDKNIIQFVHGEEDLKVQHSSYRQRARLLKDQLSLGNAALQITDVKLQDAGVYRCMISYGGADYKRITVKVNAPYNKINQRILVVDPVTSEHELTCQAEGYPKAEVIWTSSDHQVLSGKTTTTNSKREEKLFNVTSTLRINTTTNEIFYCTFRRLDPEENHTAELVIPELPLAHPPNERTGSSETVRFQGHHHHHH
The experiment in a line: HTRF PD-1-Ig/PD-L1-His binding assay (human PD-L1). The settings on record: cluster symbol; read-out: HTRF IC50 cluster. In outline: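 Soluble PD-1-Ig binding to PD-L1-His measured by HTRF in dPBS with 0.1% BSA and 0.05% Tween-20. Detection used europium cryptate anti-Ig antibody (1 nM final) and APC anti-His antibody (20 nM final) added on top of the binding reaction.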
(In general: TR-FRET usually uses a lanthanide donor and a delayed reading to cut background.)

The mark [2] stands for this setting: cell line of CBA not given (LK35.2-hPD-L1 or 293T-hPD-L1).
The mark [3] stands for this setting: cell binding assay, cell line not given.

Each structure is given as a SMILES string. Read-outs that look alike come from different tables or passages of the source. Positions of bridges follow the written chain, without caps; N, C: chain ends. Non-standard residues stand in square brackets, D forms with d. Residues, ends and D or L forms follow the SMILES beside them. ξ: configuration not given here. Phe(4-Br) = N[C@@H](Cc1ccc(Br)cc1)C(=O)O; 1Nal = N[C@@H](Cc1cccc2ccccc12)C(=O)O; d(cisHyp) = O=C(O)[C@H]1C[C@@H](O)CN1; Bta = N[C@@H](Cc1csc2ccccc12)C(=O)O; Hyp = O=C(O)[C@@H]1C[C@@H](O)CN1; NMeF = CN[C@@H](Cc1ccccc1)C(=O)O; NMehSer = CN[C@@H](CCO)C(=O)O; NMeNle = CCCC[C@H](NC)C(=O)O; NMeA = CN[C@@H](C)C(=O)O; Orn = NCCC[C@H](N)C(=O)O; Dab = NCC[C@H](N)C(=O)O; Dap = NC[C@H](N)C(=O)O; ξC = NC(CS)C(=O)O; Sar = CNCC(=O)O

T1 sequence (Q9NZQ7 19-290): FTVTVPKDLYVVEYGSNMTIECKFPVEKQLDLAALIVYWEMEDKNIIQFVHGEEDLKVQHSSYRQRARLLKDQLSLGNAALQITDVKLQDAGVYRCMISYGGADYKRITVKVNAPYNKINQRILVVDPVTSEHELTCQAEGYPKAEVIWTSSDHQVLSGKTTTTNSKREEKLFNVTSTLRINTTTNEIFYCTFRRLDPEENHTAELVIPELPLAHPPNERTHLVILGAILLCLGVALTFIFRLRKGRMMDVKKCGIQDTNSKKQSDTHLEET

As to `CCCC[C@H]1C(=O)N(C)[C@@H](CCCC)C(=O)N[C@@H](CCCNC(=N)N)C(=O)N[C@H](C(=O)NCC(N)=O)CSCC(=O)N[C@@H](Cc2ccccc2)C(=O)N(C)[C@@H](C)C(=O)N[C@@H](CC(N)=O)C(=O)N2CCC[C@H]2C(=O)N[C@@H](Cc2cnc[nH]2)C(=O)N[C@@H](CC(C)C)C(=O)N2C[C@H](O)C[C@H]2C(=O)N[C@@H](Cc2c[nH]c3ccccc23)C(=O)N[C@@H](CO)C(=O)N[C@@H](Cc2c[nH]c3ccccc23)C(=O)N1C` [Example 1087] ({CH2CO}-F[NMeA]NPHL[Hyp]WSW[NMeNle][NMeNle]RCG-NH2; thioether N-14), the IC50 in assay [1] (setting [2]) lay within 0.158 to 4.71 nM; on Human PD-L1/PD-1 it was 0.385 to 6.74 nM.

On to `CCCC[C@H]1C(=O)N(C)[C@@H](CCCC)C(=O)N[C@@H](CCCNC(=N)N)C(=O)N[C@H](C(=O)NCC(N)=O)CSCC(=O)N[C@@H](Cc2ccc(O)cc2)C(=O)N(C)[C@@H](C)C(=O)N[C@@H](CCC(=O)O)C(=O)N2CCC[C@H]2C(=O)N[C@@H](Cc2cnc[nH]2)C(=O)N[C@@H](CC(C)C)C(=O)N2CCC[C@H]2C(=O)N[C@@H](Cc2c[nH]c3ccccc23)C(=O)N[C@@H](CO)C(=O)N[C@@H](Cc2c[nH]c3ccccc23)C(=O)N1C` [Example 1167] ({CH2CO}-Y[NMeA]EPHLPWSW[NMeNle][NMeNle]RCG-NH2; thioether N-14), for which the IC50 was 0.158 to 4.71 nM in assay [1] (setting [2]) and 0.385 to 6.74 nM at Human PD-L1/PD-1.

As for `CCCC[C@H]1C(=O)N[C@@H](CCCNC(=N)N)C(=O)N[C@H](C(=O)NCC(N)=O)CSCC(=O)N[C@@H](Cc2ccc(O)cc2)C(=O)N(C)[C@@H](C)C(=O)N[C@@H](CC(N)=O)C(=O)N2CCC[C@H]2C(=O)N[C@@H](Cc2cnc[nH]2)C(=O)N[C@@H](CC(C)C)C(=O)N2C[C@H](O)C[C@@H]2C(=O)N[C@@H](Cc2c[nH]c3ccccc23)C(=O)N[C@@H](CO)C(=O)N[C@@H](Cc2csc3ccccc23)C(=O)N(C)[C@@H](CCOC)C(=O)N1C` [Example 9007] ({CH2CO}-Y[NMeA]NPHL[d(cisHyp)]WS[Bta][NMehSer](Me)[NMeNle]RCG-NH2; thioether N-14), the results for the 50% inhibitory concentration (IC50) (in assay [1] (setting [3]); on Human PD-L1/PD-1) were 0.158 to 4.71 nM and 0.385 to 6.74 nM, respectively.

For `CCCC[C@H]1C(=O)N(C)[C@@H](CCCC)C(=O)N[C@@H](CC(C)C)C(=O)N[C@H](C(=O)NCC(N)=O)CSCC(=O)N[C@@H](Cc2ccc(O)cc2)C(=O)N(C)[C@@H](C)C(=O)N[C@@H](CC(N)=O)C(=O)N2CCC[C@H]2C(=O)N[C@@H](Cc2cnc[nH]2)C(=O)N[C@@H](CCC(=O)O)C(=O)N2C[C@H](O)C[C@H]2C(=O)N[C@@H](Cc2csc3ccccc23)C(=O)N[C@@H](CCN)C(=O)N[C@@H](Cc2c[nH]c3ccccc23)C(=O)N1C` [Example 5051] ({CH2CO}-Y[NMeA]NPHE[Hyp][Bta][Dab]W[NMeNle][NMeNle]LCG-NH2; thioether N-14), the half-inhibitory concentration (IC50) in assay [1] (setting [3]) was greater than 74.3 nM; on Human PD-L1/PD-1 it was greater than 30.5 nM.

With `CCCC[C@H]1C(=O)N(C)[C@@H](CCCC)C(=O)N[C@@H](CCCNC(=N)N)C(=O)N[C@@H](C(=O)NCC(N)=O)CSCC(=O)N[C@@H](Cc2ccccc2)C(=O)N(C)[C@@H](C)C(=O)N[C@@H](CC(N)=O)C(=O)N2CCC[C@H]2C(=O)N[C@@H](Cc2cnc[nH]2)C(=O)N[C@@H](CC(C)C)C(=O)N(C)CC(=O)N[C@@H](Cc2c[nH]c3ccccc23)C(=O)N[C@@H](CO)C(=O)N[C@@H](Cc2cccc3ccccc23)C(=O)N1C` [Example 1002] ({CH2CO}-F[NMeA]NPHL[Sar]WS[1Nal][NMeNle][NMeNle]R[dC]G-NH2; thioether N-14), the figures for the half-inhibitory concentration (IC50) (in assay [1] (setting [2]); at Human PD-L1/PD-1) were 4.78 to 72.9 nM and 6.76 to 30.3 nM, respectively.

For `CCCC[C@H]1C(=O)N(C)CC(=O)N[C@@H](CC(=O)O)C(=O)N[C@@H](C(C)C)C(=O)N(C)[C@@H](Cc2ccccc2)C(=O)N[C@@H](CC(C)C)C(=O)N(C)CC(=O)N[C@@H](Cc2c[nH]c3ccccc23)C(=O)N[C@@H](Cc2ccc(O)cc2)C(=O)N[C@@H](CC(C)C)C(=O)N[C@H](C(=O)NCC(N)=O)CSCC(=O)N[C@@H](Cc2ccccc2)C(=O)N(C)[C@@H](Cc2ccccc2)C(=O)N1C` [Example 3505] (HELM PEPTIDE1{[O=C(C[*:3])[*:2]].F.[meF].[CCCC[C@@H](C(=O)[*:2])N(C)[*:1]].[Sar].D.V.[meF].L.[Sar].W.Y.L.C.G.[am]}$PEPTIDE1,PEPTIDE1,1:R3-14:R3$$$V2.0), the IC50 in assay [1] (setting [3]) fell in the range of 4.78 to 72.9 nM; at Human PD-L1/PD-1, 6.76 to 30.3 nM.

With `CCCC[C@H]1C(=O)N(C)[C@@H](CCCC)C(=O)N[C@@H](CO)C(=O)N[C@H](C(=O)NCC(N)=O)CSCC(=O)N[C@@H](Cc2ccc(O)cc2)C(=O)N(C)[C@@H](C)C(=O)N[C@@H](CC(N)=O)C(=O)N2CCC[C@H]2C(=O)N[C@@H](CO)C(=O)N[C@@H](CC(C)C)C(=O)N2C[C@H](O)C[C@H]2C(=O)N[C@@H](Cc2c[nH]c3ccccc23)C(=O)N[C@@H](CO)C(=O)N[C@@H](Cc2c[nH]c3ccccc23)C(=O)N1C` [Example 5118] ({CH2CO}-Y[NMeA]NPSL[Hyp]WSW[NMeNle][NMeNle]SCG-NH2; thioether N-14), the half-maximal inhibitory concentration (IC50) in assay [1] (setting [3]) is 0.158 to 4.71 nM; at Human PD-L1/PD-1 it was 0.385 to 6.74 nM.

Consider `CCCC[C@H]1C(=O)N(C)[C@@H](CCCC)C(=O)N[C@@H](C)C(=O)N[C@H](C(=O)NCC(N)=O)CSCC(=O)N[C@@H](Cc2ccc(O)cc2)C(=O)N(C)[C@@H](C)C(=O)N[C@@H](CC(=O)O)C(=O)N2CCC[C@H]2C(=O)N[C@@H](Cc2cnc[nH]2)C(=O)N[C@@H](CCCNC(C)=O)C(=O)N2C[C@H](O)C[C@H]2C(=O)N[C@@H](Cc2c[nH]c3ccccc23)C(=O)N[C@@H](CO)C(=O)N[C@@H](Cc2c[nH]c3ccccc23)C(=O)N1C` [Example 1156] ({CH2CO}-Y[NMeA]DPH[Orn](Ac)[Hyp]WSW[NMeNle][NMeNle]ACG-NH2; thioether N-14), for which the IC50 in assay [1] (setting [2]) lay within 0.158 to 4.71 nM; on Human PD-L1/PD-1 it was 0.385 to 6.74 nM.

Regarding `CCCC[C@H]1C(=O)N(C)CC(=O)N[C@@H](CC(=O)O)C(=O)N[C@@H](C(C)C)C(=O)N(C)[C@@H](Cc2ccccc2)C(=O)N[C@@H](Cc2ccc(O)cc2)C(=O)N(C)CC(=O)N[C@@H](Cc2c[nH]c3ccccc23)C(=O)N[C@@H](Cc2ccc(O)cc2)C(=O)N[C@@H](CC(C)C)C(=O)N[C@H](C(=O)NCC(N)=O)CSCC(=O)N[C@@H](Cc2ccc(Br)cc2)C(=O)N(C)[C@@H](Cc2ccccc2)C(=O)N1C` [Example 3081] ({CH2CO}-[Phe(4-Br)][NMeF][NMeNle][Sar]DV[NMeF]Y[Sar]WYLCG-NH2; thioether N-13), the IC50 was 4.78 to 72.9 nM in assay [1] (setting [2]) and greater than 30.5 nM on Human PD-L1/PD-1.

For `CCCC[C@H]1C(=O)N(C)CC(=O)N[C@@H](CC(=O)O)C(=O)N[C@@H](C(C)C)C(=O)N(C)[C@@H](Cc2ccccc2)C(=O)N[C@@H](Cc2ccc(O)cc2)C(=O)N(C)CC(=O)N[C@@H](Cc2c[nH]c3ccccc23)C(=O)N(C)[C@@H](Cc2ccc(O)cc2)C(=O)N[C@@H](CC(C)C)C(=O)N[C@H](C(=O)NCC(N)=O)CSCC(=O)N[C@@H](Cc2ccccc2)C(=O)N(C)[C@@H](Cc2ccccc2)C(=O)N1C` [Example 3566] (HELM PEPTIDE1{[O=C(C[*:3])[*:2]].F.[meF].[CCCC[C@@H](C(=O)[*:2])N(C)[*:1]].[Sar].D.V.[meF].Y.[Sar].W.[meY].L.C.G.[am]}$PEPTIDE1,PEPTIDE1,1:R3-14:R3$$$V2.0), the IC50 in assay [1] (setting [3]) is greater than 74.3 nM; at Human PD-L1/PD-1 it was greater than 30.5 nM.

With `CCCC[C@H]1C(=O)N(C)[C@@H](CCCC)C(=O)N[C@@H](CCCNC(=N)N)C(=O)NC(C(=O)NCC(N)=O)CSCC(=O)N[C@@H](Cc2ccc(O)cc2)C(=O)N(C)[C@@H](C)C(=O)N[C@@H](CC(N)=O)C(=O)N2CCC[C@H]2C(=O)N[C@@H](Cc2c[nH]cn2)C(=O)NCC(=O)N[C@@H](CC(C)C)C(=O)N2CCC[C@H]2C(=O)N[C@@H](Cc2c[nH]c3ccccc23)C(=O)N[C@@H](CO)C(=O)N[C@@H](Cc2c[nH]c3ccccc23)C(=O)N1C` (some centres unmarked) [Example 10516] ({CH2CO}-Y[NMeA]NPHGLPWSW[NMeNle][NMeNle]R[ξC]G-NH2; thioether N-15), the 50% inhibitory concentration (IC50) in assay [1] (setting [3]) is greater than 74.3 nM; at Human PD-L1/PD-1, greater than 30.5 nM.

Turning to `CCCC[C@H]1C(=O)N(C)[C@@H](CCCC)C(=O)N[C@@H](CCCNC(=N)N)C(=O)N[C@H](C(=O)NCC(N)=O)CSCC(=O)N[C@@H](Cc2ccc(O)cc2)C(=O)N(C)[C@@H](C)C(=O)N[C@@H](CC(N)=O)C(=O)N2CCC[C@H]2C(=O)N[C@@H](CN)C(=O)N[C@@H](CC(C)C)C(=O)N2C[C@H](O)C[C@H]2C(=O)N[C@@H](Cc2c[nH]c3ccccc23)C(=O)N[C@@H](C(C)C)C(=O)N[C@@H](Cc2c[nH]c3ccccc23)C(=O)N1C` [Example 6032] ({CH2CO}-Y[NMeA]NP[Dap]L[Hyp]WVW[NMeNle][NMeNle]RCG-NH2; thioether N-14), the IC50 in assay [1] (setting [3]) is 0.158 to 4.71 nM; on Human PD-L1/PD-1 it was 0.385 to 6.74 nM.

As to `CCCC[C@H]1C(=O)N(C)[C@@H](CCCC)C(=O)N[C@@H](C)C(=O)N[C@H](C(=O)NCC(N)=O)CSCC(=O)N[C@@H](Cc2ccc(O)cc2)C(=O)N(C)[C@@H](C)C(=O)N[C@@H](CC(N)=O)C(=O)N2CCC[C@H]2C(=O)N[C@@H](CN)C(=O)N[C@@H](CCC(=O)O)C(=O)N2C[C@H](O)C[C@H]2C(=O)N[C@@H](Cc2c[nH]c3ccccc23)C(=O)N[C@@H](CO)C(=O)N[C@@H](Cc2c[nH]c3ccccc23)C(=O)N1C` [Example 1171] ({CH2CO}-Y[NMeA]NP[Dap]E[Hyp]WSW[NMeNle][NMeNle]ACG-NH2; thioether N-14), the IC50 lay within 0.158 to 4.71 nM in assay [1] (setting [2]) and 0.385 to 6.74 nM at Human PD-L1/PD-1.

(Values after US9850283B2, “Macrocyclic inhibitors of the PD-1/PD-L1 and CD80(B7-1)/PD-L1 protein/protein interactions” (BRISTOL-MYERS SQUIBB COMPANY, priority 2013, dated 2017).)
